experiment: Metabolite profile of [14C] compound (I) in rat hepatocyte incubations; type: in vitro ADME, Sprague-Dawley rat; settings: (Ia) 20 μM, 3 h, 37° C., ~2 million cells/mL; relative distribution in radiochromatographic profile
Experimental: The compound of formula (I) was used as the [^14C] compound (Ia) (30.4 μCi/mg, radiochemical purity 99.2%), as the monohydrate of the free base. The C-14 label was on the carbon in the 2-position of the thiazole ring.
Freshly isolated rat hepatocyte preparations were prepared from one male Sprague-Dawley rat. Rat Hepatocytes were prepared according to a standard procedure (Seglen, PO. Preparation of isolated rat liver cells. Methods Cell Biol., 1976, 13: 29-83). Cryopreserved cynomolgus monkey hepatocytes (male, pooled, n=6) and human hepatocytes (3 individual preparation) were purchased from In Vitro Technologies (Baltimore, Md.). Microsomes from male SD Rats (pooled, n=200, 20 mg/mL) and male cynomolgus monkeys (pooled, n=8, 20 mg/mL) were obtained from Xenotech LLC, Kansas City, Kans. Human liver microsomes (male, pooled, n=38) were from BD-Gentest, Woburn, Mass.
A 6 mM stock solution of the compound of formula (Ia) (the [^14C] of the compound of formula (I) was prepared at by dissolving 3.7 mg of the compound of formula (Ia) into 1:1 acetonitrile/DMSO. The 2 mM stock solution of the compound of formula (Ia) was obtained by diluting an aliquot of the 6 mM stock solution 3-fold with acetonitrile.
Rat hepatocyte suspensions were provided at concentrations of 9.1 million cells/mL with a viability of 90%. The cell suspension was diluted accordingly with modified Krebs-Henseleit buffer to give a final concentration of 2 million cells/mL.
Viability of the hepatocytes was checked using a Trypan Blue exclusion assay and a hemocytometer. A mixture of 0.1 mL of the hepatocyte suspension and 0.1 mL of trypan blue solution were diluted with 0.8 mL of Krebs-Henseleit buffer. The solution was gently mixed and plated onto a Levy hemocytometer (Hausser Scientific) and the viable cells (unstained) were counted under a light microscope. The viability of the hepatocytes ranged from 77% to 90% at the beginning of the incubations.
Hepatocyte incubations were conducted at 37° C. for 3 h in a NAPCO CO2 6000 incubator (VWR Scientific Products) under a 5% CO2 atmosphere using an orbital shaker at 90 rpm. For each incubation, the final concentration of compound (Ia) was 20 μM and the hepatocyte concentrations were ˜2 million cells/mL. A control incubation, in the absence of hepatocytes, was also performed for 3 h. The incubations were stopped by adding one volume of ice-cold acetonitrile. Each 0.5 mL incubation contained 0.1 M potassium phosphate buffer (pH 7.4), 2.5 mM MgCl2, 2 mg/mL microsomal protein, and 2.0 mM NADPH. The final substrate concentration was 20 μM. The mixtures were incubated in a shaking water bath at 37° C. for 15 min. Control incubations in the absence of microsomes or NADPH were performed for each species. The reactions were stopped with the addition of 1 mL of ice-cold acetonitrile.
HPLC was performed on a Waters Alliance™ system equipped with Waters 2695 pumps and a photodiode array detector (Waters 2996). A Phenomenex Synergy Polar-RP® column (4.6×250 mm, 5 micron) was used for metabolite separation. All HPLC analyses were performed at 1 mL/min flow rate at room temperature. Two HPLC mobile phase and gradient systems were used because all metabolites could not be completely separated on either of the individual HPLC systems. The first system consisted of (A) water with 0.1% formic acid and (B) acetonitrile with 0.1% formic acid as mobile phase. The linear gradient was as follows: 0 min, 20% B; 1 min, 20% B; 41 min, 35% B; 42 min, 90% B; 44 min, 90% B. The column was re-equilibrated at 20% B for 6 min before the next injection. The second HPLC system was used to separate certain co-eluting metabolites that could not be separated by the first system. The mobile phase consisted of (A) water with 0.1% triflouroacetic acid (TFA) and (B) acetonitrile with 0.1% TFA. The gradient was as follows: 0 min, 20% B; 1 min, 20% B; 51 min, 35% B; 52 min, 90% B; 54 min 90% B. The column was equilibrated at 20% B for 6 min prior to the next injection. […]

| Structure (SMILES) | % of Radioactivity in Hepatocytes, Rat [%] |
| --- | --- |
| Cc1nc(Nc2ncc(C(=O)Nc3c(C)cc(O)cc3Cl)s2)cc(N2CCN(CCO)CC2)n1 [M20 (V)] | 1.1 |
| Cc1nc(Nc2ncc(C(=O)Nc3c(Cl)cccc3CO)s2)cc(N2CCN(CCO)CC2)n1 [M24 (VI), N-(2-chloro-6-(hydroxymethyl)phenyl)-2-(6-(4-(2-hydroxyethyl)piperazin-1-yl)-2-methylpyrimidin-4-ylamino)thiazole-5-carboxamide] | 1.1 |
| Cc1nc(Nc2ncc(C(=O)Nc3c(C)cccc3Cl)s2)cc(N2CC[N+]([O-])(CCO)CC2)n1 [M5 (III)] | 2.7 |

The remaining lines, values ahead:

| % of Radioactivity in Hepatocytes, Rat [%] | Structure (SMILES) |
| --- | --- |
| 1.6 | Cc1nc(Nc2ncc(C(=O)Nc3c(C)cccc3Cl)s2)cc(N2CCNCC2)n1 [M4 (II)] |
| 88.8 | Cc1nc(Nc2ncc(C(=O)Nc3c(C)cccc3Cl)s2)cc(N2CCN(CCO)CC2)n1 [Parent (I), N-(2-Chloro-6-methylphenyl)-2-[[6-[4-(2-hydroxyethyl)-1-piperazinyl]-2-methyl-4-pyrimidinyl]amino]-5-thiazolecarboxamide] |
| 4.9 | Cc1nc(Nc2ncc(C(=O)Nc3c(C)cccc3Cl)s2)cc(N2CCN(CC(=O)O)CC2)n1 [M6 (IV), 2-(4-(6-(5-((2-Chloro-6-methylphenyl)carbamoyl)thiazol-2-ylamino)-2-methylpyrimidin-4-yl)piperazin-1-yl)acetic acid] |

From US20060211705A1, “'N-(2-chloro-6-methylphenyl)-2-[[6-[4-(2-hydroxyethyl)-1-piperazinyl]-2-methyl-4-pyrimidinyl]amino]-5-thiazolecarboxamides metabolites” (priority 2005, published 2006)
